EC50, IC50 and outcome data for 72 molecules are collected here from PubChem BioAssay AID179 (DTP/NCI, 2004).

This assay concerns CEM cells HIV-1 protection, formazan growth assay. Kind of assay: NCI AIDS Antiviral Assay. Conditions: for IC50: measured here: growth of uninfected CEM cells. The gist of the method:
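Human CEM cells, uninfected and HIV-1-infected, exposed to five drug concentrations; growth measured by soluble formazan assay and scored as percent protection from infection, with protecting compounds retested.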

Calls of active or inactive are those of the source.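 The calls were made as follows: active = compounds giving half or more protection of infected cells from virus-caused growth loss, again on retest; inactive = the rest.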

The term EC50 denotes the midpoint of the concentration-response curve. A word on the IC50: it is the point on the concentration scale where inhibition reaches its midpoint. A lower IC50 goes with greater potency in that assay. On to `CCCCCCCCSCC1OC2OC3C(CSCCCCCCCC)OC(OC4C(CSCCCCCCCC)OC(OC5C(CSCCCCCCCC)OC(OC6C(CSCCCCCCCC)OC(OC7C(CSCCCCCCCC)OC(OC8C(CSCCCCCCCC)OC(OC1C(OS(=O)(=O)O)C2OS(=O)(=O)O)C(OS(=O)(=O)O)C8OS(=O)(=O)O)C(OS(=O)(=O)O)C7OS(=O)(=O)O)C(OS(=O)(=O)O)C6OS(=O)(=O)O)C(OS(=O)(=O)O)C5OS(=O)(=O)O)C(OS(=O)(=O)O)C4OS(=O)(=O)O)C(OS(=O)(=O)O)C3OS(=O)(=O)O` (configuration not stated), for which the EC50 was 2.57 µM and the IC50 was 50.1 µM.

Regarding `Nc1nnnn1-c1ccccc1`, the EC50 was greater than 200 µM and the IC50 is greater than 200 µM.

On to `CN1CCN=C1c1ccc(NC(=O)Nc2ccc(NC(=O)Nc3ccc(C4=NCCN4C)cc3)cc2)cc1`, for which the EC50 is greater than 200 µM and the IC50 is 38.9 µM.

As to `COc1ccc(C2OCC3C(c4ccc(OC)c(OC)c4)OCC23)cc1OC` (configuration not stated), the EC50 was greater than 200 µM and the IC50 amounted to 97.7 µM.

Take `CN1C(C(=O)Nc2nccs2)=C(O)c2ccccc2S1(=O)=O`: the EC50 is greater than 200 µM and the IC50 was found to be 191 µM.

As to `COC(=O)C(=O)C(C(=O)C=C(C)C)C(=O)C(=O)Nc1ccc(C)cc1C` (configuration not stated), the EC50 was greater than 100 µM and the IC50 was greater than 100 µM.

For `Nc1ccc(S(=O)(=O)Nc2nc3ccccc3nc2Nc2ccc(S(N)(=O)=O)cc2)cc1`, the EC50 was greater than 200 µM and the IC50 amounted to 20.4 µM.

With `O=C1CSC(c2ccc([N+](=O)[O-])cc2)N1c1ccc(-n2c(-c3ccccc3)nc3ccccc3c2=O)cc1` (configuration not stated), the EC50 is greater than 200 µM and the IC50 came out at 129 µM.

Consider `CCCCCCCCCCCCS(=O)(=O)O.[Pb]`, for which the EC50 is greater than 200 µM and the IC50 was greater than 200 µM.

With `CCCCCCCCCCCCCCCC(=O)Nc1ccn(C2CCC(COP(=O)(O)OC3CC(n4cc(F)c(=O)[nH]c4=O)OC3CO)O2)c(=O)n1` (configuration not stated), the EC50 is greater than 0.126 µM and the 50% inhibitory concentration (IC50) worked out at 0.038 µM.

As for `CC(=O)CC1(C)OC(N)=C(C#N)C1(C#N)C#N` (configuration not stated), the EC50 is greater than 200 µM and the IC50 turned out to be 162 µM.

On to `O=c1[nH]cnc2c(NC3OC(CO)C(O)C3O)cccc12` (configuration not stated), for which the result was inactive.

In the case of `CC1(C)CN=C(Nc2ccc(F)cc2)S1`, the EC50 was greater than 200 µM and the IC50 is greater than 200 µM.

As for `CC(=O)CCS(=O)(=O)O`, the EC50 is greater than 200 µM and the IC50 is greater than 200 µM.

As for `CCOc1ccc(N2C(=O)NC3(c4ccccc4)N(C)C(=O)N(C)C23c2ccccc2)cc1` (configuration not stated), the result was inactive.

On to `COP(=O)(OC)C(N)CCSC` (configuration not stated), for which the EC50 was greater than 200 µM and the half-maximal inhibitory concentration (IC50) was greater than 200 µM.

As for `COc1cccc(/C=C\C#N)c1`, the EC50 was greater than 316 µM and the IC50 was greater than 316 µM.

Regarding `O=C(O)COc1ccc(C(=O)/C(SS/C(C(=O)c2ccc(OCC(=O)O)c(Cl)c2Cl)=C2\C=C(c3ccc(Br)cc3)SS2)=C2/C=C(c3ccc(Br)cc3)SS2)c(Cl)c1Cl`, the result was inactive.

As to `CCCCCCCCCCCCC(Br)C(=O)NCC(N)=O` (configuration not stated), the result was inactive.

Consider `CN(C)CCNC(=O)c1cccc(N(C)C(=O)c2ccccc2)c1[N+](=O)[O-]`, for which the EC50 was greater than 200 µM and the IC50 was greater than 200 µM.

For `O=C(N/C(=C\c1cc(Cl)ccc1Cl)c1nc2[nH]c(=S)[nH]c(=O)c2[nH]1)c1ccccc1`, the EC50 is greater than 79.4 µM and the IC50 was 21.9 µM.

On to `CCOC(=O)C1=C(C(=O)OCC)C2(c3ccccc3)N(O1)c1ccccc1C2(C)C` (configuration not stated), for which the outcome was inactive.

For `COc1ccccc1C1SCC(=O)N1c1ccc(-c2ccc(-n3c(-c4ccccc4)nc4ccccc4c3=O)cc2)cc1` (configuration not stated), the EC50 was greater than 200 µM and the 50% inhibitory concentration (IC50) was greater than 200 µM.

With `ONC1=Nc2cc(Cl)ccc2C(=S)N2CSCC12` (configuration not stated), the EC50 was greater than 200 µM and the concentration for half-maximal inhibition (IC50) is greater than 200 µM.

Regarding `CC(=O)Oc1cc(OC(C)=O)c2c(C)cc(=O)oc2c1`, the EC50 was greater than 200 µM and the IC50 came to 148 µM.

For the molecule `NC(=O)c1ccc[c]([Sb](=[O])([OH])[OH])c1`, the half-maximal effective concentration (EC50) was 10.5 µM and the IC50 stood at 398 µM.

For `COc1ccccc1C1OCC(C)(C)N1C` (configuration not stated), the EC50 is greater than 200 µM and the IC50 is 14.5 µM.

In the case of `NC(=O)c1ccc(S(=O)(=NS(=O)(=O)c2ccccc2)c2ccc(C(N)=O)cc2)cc1`, the EC50 was greater than 295 µM and the IC50 was greater than 295 µM.

Regarding `NC(CSCc1ccccc1)C(=O)O` (configuration not stated), the EC50 was greater than 224 µM and the IC50 is greater than 224 µM.

As to `CC1(C)C2CC(O)C1CCC2=O` (configuration not stated), the EC50 was greater than 200 µM and the IC50 is greater than 200 µM.

`CC(=O)[C@]1(O)Cc2c(O)c3c(c(O)c2[C@@H](OC2CC(N)C(O)C(C)O2)C1)C(=O)c1c(OCc2ccccc2)cccc1C3=O` (some centres not stated): the result was inactive.

For the molecule `Oc1ccc(N=C2N=c3c(c4ccccc4c4ccccc34)=N2)c2ccccc12`, the EC50 is greater than 200 µM and the IC50 amounted to 4.57 µM.

`COc1ccc(C(=O)NNC(=O)c2nsc3ccccc23)cc1`: the EC50 is greater than 41.7 µM and the IC50 was greater than 41.7 µM.

`O=C1C=CC(=O)c2c(O)c3c(c(O)c21)C[C@H](O)[C@H](O)[C@@H]3O`: the EC50 was greater than 269 µM and the half-maximal inhibitory concentration (IC50) was found to be 0.389 µM.

Regarding `Cc1ccccc1SC(/C=C/NNC1=NC(c2ccccc2)C(c2ccccc2)=NN1)c1ccccc1` (configuration not stated), the EC50 is greater than 20 µM and the IC50 is greater than 20 µM.

As to `O=C(C=Nc1ccccc1C(=O)[O-])c1ccco1.O=C(C=Nc1ccccc1C(=O)[O-])c1ccco1.[Co+2]`, the EC50 is greater than 1.38 µM and the IC50 was greater than 1.38 µM.

For `O=Cc1ccc2c(c1)C(O)NC(=O)O2` (configuration not stated), the EC50 was 28.2 µM and the IC50 is 72.4 µM.

On to `COc1cc2c(cc1OC)C1[C@@H](c3ccccc3)OCN1CC2` (some centres not stated), for which the result was inactive.

With `CN(C)CCNc1nc(-c2cccs2)cc(-c2cccs2)n1`, the EC50 was greater than 759 µM and the IC50 was determined as 6.46 µM.

Turning to `Cc1cn(CCCCOC(=O)NC(CCCNC(N)=O)C(=O)O)c(=O)[nH]c1=O` (configuration not stated), the EC50 was greater than 200 µM and the IC50 was greater than 200 µM.

On to `CN(C)CC1CCCC1=O` (configuration not stated), for which the EC50 was greater than 200 µM, the result was inactive and the IC50 is 28.2 µM.

Regarding `COC1=C(C)C(=O)C2C(C1=O)C(c1ccc(OC)c(OC)c1)[C@H]2C` (some centres not stated), the EC50 was greater than 151 µM and the IC50 came out at 135 µM.

Regarding `Cc1nc(N)sc1C(=O)Nc1ncn[nH]1`, the EC50 is greater than 200 µM and the IC50 turned out to be 117 µM.

Turning to `CC(=O)NC(CCCCN)C(=O)NCc1ccccc1` (configuration not stated), the EC50 is greater than 912 µM and the IC50 is greater than 912 µM.

With `O=C(NO)c1ccc(C(=O)NO)c(Br)c1`, the outcome was inactive.

In the case of `CC(NC(C#N)CC12CC3CC(CC(C3)C1)C2)c1ccccc1` (configuration not stated), the EC50 is greater than 200 µM and the IC50 is 41.7 µM.

In the case of `O=C(Nc1cccc(C(F)(F)F)c1)C(=O)C(C(=O)c1ccc2ccccc2c1)C1OC(=O)c2ccccc21` (configuration not stated), the EC50 is greater than 50.1 µM and the IC50 was determined as 21.9 µM.

As for `O=S1CC(c2ccccc2)=C(c2ccccc2)CS1` (configuration not stated), the EC50 was greater than 200 µM and the IC50 was 47.9 µM.

Regarding `O=P1(Oc2ccccc2)NCc2ncccc2O1` (configuration not stated), the EC50 is greater than 200 µM and the IC50 is greater than 200 µM.

As for `NC(=O)C(=O)c1ncn(Cc2ccccc2)c1N`, the EC50 was greater than 200 µM and the IC50 was greater than 200 µM.

On to `O=C(/C=C/c1ccccc1)c1ccc(NCc2nc3ccccc3[nH]2)cc1`, for which the EC50 was greater than 20.4 µM and the IC50 is 11 µM.

Turning to `N#CC(C#N)C(c1ccccc1)c1ccccc1`, the result was inactive.

For `CCCc1cc(-c2ccc(-c3cc(CCC)c(C=O)[nH]3)s2)[nH]c1C=O`, the EC50 was greater than 5.62 µM and the IC50 amounted to 1.62 µM.

Regarding `CC(=O)Nc1cc(S(=O)(=O)O)cc2cc(S(=O)(=O)O)c(N=Nc3ccc(C(=O)Nc4ccc(S(=O)(=O)O)cc4)cc3)c(O)c12`, the outcome was inactive.

`CS(=O)(=O)OCCNC[C@@H](O)[C@@H](O)CNCCOS(C)(=O)=O`: the EC50 is greater than 692 µM and the IC50 came out at 1.38 µM.

As for `CCOC(=O)C1Nc2ccccc2[C@H]2OCC[C@@H]12` (some centres not stated), the EC50 is greater than 525 µM and the 50% inhibitory concentration (IC50) is greater than 525 µM.

As to `CN(C)c1nn2c(-c3ccccc3)nnc2o1`, the EC50 is greater than 200 µM and the IC50 was greater than 200 µM.

`CS(=O)(=O)OCCCSCCSCCCOS(C)(=O)=O`: the EC50 was greater than 676 µM and the IC50 was greater than 676 µM.

For `Nc1cc2c(cc1-n1cccc1)oc1ccccc12`, the EC50 was greater than 200 µM and the IC50 stood at 19.5 µM.

Take `O=C(O)C(F)(OC(F)(F)C(F)(OC(F)(F)C(F)(F)C(F)(F)F)C(F)(F)F)C(F)(F)F` (configuration not stated): the EC50 is greater than 200 µM and the IC50 was greater than 200 µM.

On to `NC(=O)C(=CN1C(=O)/C(=C/c2ccccc2O)SC1=S)C(N)=O`, for which the EC50 is greater than 200 µM and the IC50 was determined as 123 µM.

Take `O=c1[nH]c(-c2ccccc2)nc2cc(Cl)ccc12`: the outcome was inactive.

As to `OC1(C23CC4CC(CC(C4)C2)C3)CSCC1(O)C12CC3CC(CC(C3)C1)C2` (configuration not stated), the EC50 is greater than 7.08 µM and the IC50 was greater than 7.08 µM.

As to `COc1ccc2c(c1OC)C(=O)OC2c1c2c(c(OC)c3c1OCO3)C(C1OC(=O)c3c1ccc(OC)c3OC)N(C)CC2` (configuration not stated), the outcome was inactive.

Take `COC(=O)CCC(=O)Nc1cc(Cl)ccc1Cl`: the EC50 was greater than 468 µM and the IC50 was greater than 468 µM.

For `O=C1Oc2ccccc2C1C/C(=N\Nc1ccccc1)c1ccccc1O` (configuration not stated), the EC50 was greater than 93.3 µM and the IC50 was found to be 79.4 µM.

Turning to `O=C1c2c(ccc3c2CCC3)CC1Cc1ccc2c(c1)CCC2` (configuration not stated), the EC50 was greater than 200 µM and the IC50 is 35.5 µM.

In the case of `c1ccc2c(c1)nnn1c3cnccc3nc21`, the EC50 was greater than 58.9 µM and the IC50 was 6.76 µM.

As for `CN(C)C(=S)/N=c1\ss/c(=N\S(=O)(=O)c2ccccc2)n1C`, the result was inactive.

Take `C/C(=N\NC(=S)NC1CCCC1)c1ccccn1`: the EC50 is greater than 2 µM and the IC50 amounted to 0.0151 µM.

For the molecule `COC(=O)CC(c1ccccc1)C1(c2ccccc2)SCCS1` (configuration not stated), the EC50 is greater than 7.94 µM and the IC50 is greater than 7.94 µM.

With `O=C1CSC(=S)N1c1ccccc1`, the EC50 is greater than 240 µM and the half-inhibitory concentration (IC50) was 178 µM.
